From patent US20250257146A1, “ANTI-TROP2 ANTIBODY-DRUG CONJUGATE” (DAIICHI SANKYO COMPANY, LIMITED, priority 2013, published 2025)

Legend:
[1] = Self-degradation of released drug derivative with aminal structure; type: physicochemical
topoisomerase I = biological target: T1, topoisomerase I (Homo sapiens, UniProt P11387); conditions: compared with SN-38 and topotecan; cited from earlier work
T1 sequence (P11387 1-765): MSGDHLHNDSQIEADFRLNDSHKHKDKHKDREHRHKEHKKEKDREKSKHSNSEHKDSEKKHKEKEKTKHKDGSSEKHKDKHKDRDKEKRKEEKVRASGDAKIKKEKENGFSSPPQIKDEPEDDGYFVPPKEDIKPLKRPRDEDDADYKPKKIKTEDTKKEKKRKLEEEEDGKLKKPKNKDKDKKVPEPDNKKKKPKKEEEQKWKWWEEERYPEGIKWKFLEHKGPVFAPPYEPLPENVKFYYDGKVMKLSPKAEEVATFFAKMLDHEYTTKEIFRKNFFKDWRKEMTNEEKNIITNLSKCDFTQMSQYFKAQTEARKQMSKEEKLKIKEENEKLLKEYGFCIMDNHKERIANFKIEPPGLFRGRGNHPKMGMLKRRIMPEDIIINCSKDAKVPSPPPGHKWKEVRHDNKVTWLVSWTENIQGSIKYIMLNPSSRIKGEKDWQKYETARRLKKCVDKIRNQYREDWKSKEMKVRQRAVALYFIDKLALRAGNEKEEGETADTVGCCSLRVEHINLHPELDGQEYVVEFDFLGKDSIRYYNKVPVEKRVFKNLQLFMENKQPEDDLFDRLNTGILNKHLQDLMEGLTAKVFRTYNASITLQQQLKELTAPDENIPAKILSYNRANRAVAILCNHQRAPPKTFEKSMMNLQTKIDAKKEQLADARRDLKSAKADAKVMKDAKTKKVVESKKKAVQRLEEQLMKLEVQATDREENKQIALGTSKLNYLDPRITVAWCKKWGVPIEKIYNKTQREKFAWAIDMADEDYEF

various cancer cells = conditions: against various cancer cells; cited from earlier work
human tumor = human tumor subcutaneously transplanted mouse model; cited from earlier work
[2] = biological target: T2, CHOK1 cells expressing human TROP2 (Homo sapiens, UniProt P09758); experiment: FACS analysis of TINA1 antibody on TROP2-overexpressing cells; type: cell-based
T2 construct: expressed in transfected cells; host or cells: CHOK1
T2 sequence (P09758 27-323): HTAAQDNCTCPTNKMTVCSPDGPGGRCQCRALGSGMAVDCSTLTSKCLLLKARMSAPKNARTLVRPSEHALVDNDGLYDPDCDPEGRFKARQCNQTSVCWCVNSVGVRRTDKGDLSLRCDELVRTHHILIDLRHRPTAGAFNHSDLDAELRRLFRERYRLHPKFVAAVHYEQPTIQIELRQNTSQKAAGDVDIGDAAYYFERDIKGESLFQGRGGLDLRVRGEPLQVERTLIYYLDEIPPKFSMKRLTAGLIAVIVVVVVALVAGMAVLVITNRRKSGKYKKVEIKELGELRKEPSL
Procedure: Because the antigen of the TINA1 antibody was predicted to be TROP2 from the band pattern, overexpression analysis by gene transfer of cDNA was conducted without mass spectrometry. […] Similar FACS analysis was conducted using a lung cancer cell line PC14, a lung cancer cell line NCI-H322, a lung cancer cell line NCI-H2122, a lung cancer cell line LCAM1, a lung cancer cell line LC2/ad, a pancreatic cancer cell line MIAPaCa2, a pancreatic cancer cell line PK-1, a prostate cancer cell line PC3, a colorectal cancer cell line HCT116, a melanoma cell line A375, an ovarian cancer cell line SKOV3, a hematopoietic tumor cell line RPMI8226, a hematopoietic tumor cell line K562, PBMC (human peripheral blood mononuclear cells), and human platelet. All of the examined lung cancer cell lines were TROP2-positive, and PC3, PK1, and SKOV3 were positive as the cell lines except for the lung cancer ones. On the other hand, all of the normal blood cells were negative.

NCI-H322 cells = experiment: Internalization activity and immunotoxin activity using DT3C; type: cell-based, human
From the text: 4-1) Antibody internalization activity evaluation system A recombinant fusion protein DT3C was produced for the purpose of measuring internalization activity and immunotoxin activity of an antibody. This DT3C is a protein having a catalytic domain of diphtheria toxin (DT) and three antibody-binding regions of protein G. DT3C specifically binds to an Fc moiety of an antibody, is stable, and induces cell death by inhibiting protein synthesis when taken up into cells. By use of this system, the internalization effect of antibody and the cytocidal effect thereof by immunotoxin can be observed at the same time (Yamaguchi, M., Hamada, H., et al., Biochemical and Biophysical Research Communications 454 (2014) 600-603).
4 μg/mL of DT3C was added at 25 μL/well to a 96-well plate, further the culture supernatants of 11 hybridomas obtained by the method of Example 1 or a method equivalent thereto were each added at 25 μL/well to the plate, and the plate was incubated at room temperature for 30 minutes. […] After incubation for 1 hour in a CO2 incubator of 37° C., the number of live cells was measured using a microplate reader (OD450 to OD640, infinite 200, Tecan Trading AG).
Each diluted solution of DT3C (0, 0.004, 0.04, 0.4, 4, or 40 μg/mL) was added at 25 μL/well to a 96-well plate, then each antibody (40 μg/mL) was added at 25 μL/well to the plate, and the plate was incubated at room temperature for 30 minutes. […] After incubation for 1 hour in a CO2 incubator of 37° C., the number of live cells was measured using a plate reader (OD450 to OD640).
Anti-TROP2 antibodies TINA1 (immunogen: lung cancer line NCI-H322), KCL7A3 and KCL2D6 (immunogen: pancreatic cancer cell line KCL-MOH1), Pr1E11 and Pr8H10 (immunogen: prostate cancer cell line Pc-1), and NY16 and NY17 (immunogen: pancreatic cancer cell line PK-1) obtained by the method of Example 1 or a method equivalent thereto, and commercially available 77220 (R&D Systems Inc.) were evaluated for their internalization activity and immunotoxin activity in the same manner as in Example 4-3).

CCC1(O)C(=O)OCc2c1cc1n(c2=O)Cc2c-1nc1cc(F)c(C)c3c1c2C(NC(=O)COCN)CC3 (centres unmarked) [NH2—CH2—O—CH2—C(═O)—(NH-DX)]
stability of the aminal structure (self-degradation to HO—CH2—C(═O)—(NH-DX)) [1]: unstable

CC[C@@]1(O)C(=O)OCc2c1cc1n(c2=O)Cc2c-1nc1cc(F)c(C)c3c1c2[C@@H](N)CC3 [exatecan, (1S,9S)-1-amino-9-ethyl-5-fluoro-2,3-dihydro-9-hydroxy-4-methyl-1H,12H-benzo[de]pyrano[3′,4′:6,7]indolizino[1,2-b]quinolin-10,13(9H,15H)-dione]
inhibitory activity on topoisomerase I (topoisomerase I): higher than SN-38 | in vitro cytocidal activity (various cancer cells): higher in vitro cytocidal activity | antitumor effect (human tumor): potent antitumor effect

B1: TINA1: antibody produced by the TROP2 hybridoma TINA1; mouse anti-TROP2 monoclonal antibody (antibody, listed as Mus musculus, V domains shown)
VH: QIQLVQSGPELKKPGETVRISCKASGYTFTTAGMQWVQKMPGKGLKWIGWINTHSGVPKYAEDFKGRFAFSLETSASTAYLQISNLKNEDTTTYFCARSGFGSSYWYFDVWGAGTAVTVSS
VL: DIVMTQSHKFMSTSVGDRVSITCKASQDVSTAVAWYQQKPGQSPKLLIYSASYRYTGVPDRFTGSGSGTAFTFTISSVQAEDLAVYYCQQHYITPLTFGAGTKLELKRA
FACS response [2]: strong positive response | internalization activity and immunotoxin activity (NCI-H322 cells; among the 8 anti-TROP2 antibodies, as Example 4-3, FIG. 12): strongest activity | internalization activity and immunotoxin activity (NCI-H322 cells; antibody 40 μg/mL + DT3C 0-40 μg/mL, among antibodies against CD59, CD71, EGFR, EpCAM, TROP2, FIG. 11): strongest internalization activity and immunotoxin activity | internalization activity and immunotoxin activity (NCI-H322 cells; hybridoma culture supernatant + DT3C 4 μg/mL, NCI-H322 cells, 3 days, FIG. 10): strong internalization activity and immunotoxin activity
